Assay results published in patent US20230141965A1, “TREATMENT OF INFECTIOUS DISEASES” (Durect Corporation, priority 2020, published 2023).

Columns and labels:
mice = experiment: Acute organ injury in mice given acetaminophen (APAP) injection; type: in vivo; settings: for kidney, lung, and liver tissues: mice, 25 mg/kg with APAP injection (600 mg/kg APAP for 24hr), FIG. 2
Protocol: Normal: normal mice without treatment; Control: mice with 10% glucose and acetaminophen (APAP) injection (600 mg/kg APAP for 24hr); PG: mice with vehicle and APAP injection (600 mg/kg APAP for 24hr); PG+25HC3S: mice with 25HC3S (25 mg/kg) and APAP injection.

C57BL/6J mice = experiment: Acute organ injury in mice challenged with lipopolysaccharide (LPS); type: in vivo; settings: for health of kidney, lung, and liver tissues (sections stained with hematoxylin and eosin, light microscope): C57BL/6J mice, 50 mg/kg i.p. two hours before i.v. LPS 5 mg/kg, tissues collected at day 3, FIG. 1
Protocol: C57BL/6J mice, 21 week old, received an i.p. injection of 25HC3S sodium salt (50 mg/kg) or vehicle. Two hours later, mice were challenged with an intravenous injection of lipopolysaccharide (LPS) at 5 mg/kg. For vehicle-treated mice, the tissues, liver, lung, and kidney, were collected right before when animals met all criteria to be sacrificed. For mice treated with 25HC3S sodium salt, tissues were collected at the day 3, when 80% of vehicle-treated mice died. The tissue sections were stained with hematoxylin and eosin, examined under light microscope with magnification x 100.

Structure (SMILES) | protection of mice from acetaminophen (mice; FIG. 2 legend, 600 mg/kg APAP) | kidney, lung, and liver tissues (mice) | health of kidney, lung, and liver tissues (sections stained with hematoxylin and eosin, light microscope) (C57BL/6J mice; listed as 25HCS) | protection of mice from lipopolysaccharide (LPS) (C57BL/6J mice; FIG. 1 legend, LPS 5 mg/kg i.v.) | health of kidney, lung, and liver tissues (sections stained with hematoxylin and eosin, light microscope) (C57BL/6J mice)
C[C@H](CCCC(C)(C)O)[C@H]1CC[C@H]2[C@@H]3CC=C4C[C@@H](OS(=O)(=O)[O-])CC[C@]4(C)[C@H]3CC[C@]12C.[Na+] [25HC3S, 5-cholesten-3, 25-diol, 3-sulfate] | protected mice from acetaminophen | improved kidney, lung, and liver tissues | improved kidney, lung, and liver tissues | protected mice from lipopolysaccharide (LPS) | 
C[C@H](CCCC(C)(C)O)[C@H]1CC[C@H]2[C@@H]3CC=C4CC(OS(=O)(=O)[O-])CC[C@]4(C)[C@H]3CC[C@]12C.[Na+] (stereo partly drawn) [25HC3S sodium salt, 5-cholesten-3, 25-diol, 3-sulfate] |  | improved kidney, lung, and liver tissues |  |  | improved the health of kidney, lung, and liver tissues
